Emax, EC50 and Activity data for 15 compounds are collected here from ChEMBL document CHEMBL4011649 (J Med Chem, 2017).

A word on the Emax: it is the greatest response seen or fitted, relative to the assay's reference. A word on the EC50: it is the concentration giving half of the maximal effect.

For data set [1], the target named is T1, 5-hydroxytryptamine receptor 2C (Homo sapiens) (UniProt P28335).
T1 sequence (whole entry): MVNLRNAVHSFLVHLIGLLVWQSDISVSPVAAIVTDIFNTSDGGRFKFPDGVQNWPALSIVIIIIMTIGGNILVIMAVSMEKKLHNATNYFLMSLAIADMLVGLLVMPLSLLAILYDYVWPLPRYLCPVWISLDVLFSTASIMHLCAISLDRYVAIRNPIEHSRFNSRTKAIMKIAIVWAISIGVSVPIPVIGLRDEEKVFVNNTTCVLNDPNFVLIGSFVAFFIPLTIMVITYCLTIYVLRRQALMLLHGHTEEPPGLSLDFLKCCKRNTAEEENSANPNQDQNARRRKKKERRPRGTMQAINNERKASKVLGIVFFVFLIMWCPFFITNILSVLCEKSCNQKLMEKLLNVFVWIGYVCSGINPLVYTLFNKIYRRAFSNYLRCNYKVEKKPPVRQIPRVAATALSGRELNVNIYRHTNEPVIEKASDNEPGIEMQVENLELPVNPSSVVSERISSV
Kind of data set: Agonist activity at human 5-HT2C-INI receptor isoform expressed in Flp-IN HEK293 cells assessed as induction of Gq-mediated calcium flux measured every second for 5 mins by Fluo-4 dye based FLIPR assay relative to serotonin. The format is functional, cell-based.

Data set [2] concerns the target 5-hydroxytryptamine receptor 2A (Homo sapiens, UniProt P28223). Kind of data set: Agonist activity at human 5-HT2A receptor expressed in Flp-IN HEK293 cells assessed as induction of calcium flux measured every second for 5 mins by Fluo-4 dye based FLIPR assay. The format is cell-based. (In general: Calcium flux is commonly read through the fluorescence of an indicator in the cells.)

The target of data set [3] is 5-hydroxytryptamine receptor 2B (Homo sapiens, UniProt P41595). Nature of the data set: Agonist activity at human 5-HT2B receptor expressed in Flp-IN HEK293 cells assessed as induction of calcium flux up to 10 uM measured every second for 5 mins by Fluo-4 dye based FLIPR assay. The format is cell-based. To be noted: hek293, 5 min.
For data set [4], the target named is T2, 5-hydroxytryptamine receptor 2C (Homo sapiens, UniProt P28335).
T2 sequence (P28335 whole entry): T1 sequence (whole entry)
Nature of the data set: Agonist activity at human 5-HT2C-INI receptor isoform expressed in Flp-IN HEK293 cells assessed as induction of Gq-mediated calcium flux measured every second for 5 mins by Fluo-4 dye based FLIPR assay. In kind it is functional, cell-based. To be noted: read-out: EC50.

The target of data set [5] is 5-HT2A receptor (Homo sapiens, UniProt P28223). Nature of the data set: Agonist activity at human 5-HT2A receptor expressed in Flp-IN HEK293 cells assessed as induction of calcium flux measured every second for 5 mins by Fluo-4 dye based FLIPR assay relative to serotonin. The settings on record: Flp-IN HEK293 cells expressing human 5-HT2A receptor. In kind it is cell-based.
Sequence of 5-HT2A receptor (P28223 whole entry): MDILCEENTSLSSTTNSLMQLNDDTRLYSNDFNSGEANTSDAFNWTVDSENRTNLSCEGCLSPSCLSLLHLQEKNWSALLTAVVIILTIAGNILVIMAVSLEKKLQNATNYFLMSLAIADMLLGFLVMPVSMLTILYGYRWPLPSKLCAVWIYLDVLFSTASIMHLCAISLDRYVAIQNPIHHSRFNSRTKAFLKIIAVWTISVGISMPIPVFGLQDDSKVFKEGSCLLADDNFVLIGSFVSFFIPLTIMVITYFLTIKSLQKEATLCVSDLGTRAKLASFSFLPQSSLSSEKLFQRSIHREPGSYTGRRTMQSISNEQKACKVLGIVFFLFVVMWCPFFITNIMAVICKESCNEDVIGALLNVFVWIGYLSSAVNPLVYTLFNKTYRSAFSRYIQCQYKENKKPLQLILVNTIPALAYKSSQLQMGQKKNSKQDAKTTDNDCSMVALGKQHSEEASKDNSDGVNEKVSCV

Sequence of 5-hydroxytryptamine receptor 2B (P41595 whole entry): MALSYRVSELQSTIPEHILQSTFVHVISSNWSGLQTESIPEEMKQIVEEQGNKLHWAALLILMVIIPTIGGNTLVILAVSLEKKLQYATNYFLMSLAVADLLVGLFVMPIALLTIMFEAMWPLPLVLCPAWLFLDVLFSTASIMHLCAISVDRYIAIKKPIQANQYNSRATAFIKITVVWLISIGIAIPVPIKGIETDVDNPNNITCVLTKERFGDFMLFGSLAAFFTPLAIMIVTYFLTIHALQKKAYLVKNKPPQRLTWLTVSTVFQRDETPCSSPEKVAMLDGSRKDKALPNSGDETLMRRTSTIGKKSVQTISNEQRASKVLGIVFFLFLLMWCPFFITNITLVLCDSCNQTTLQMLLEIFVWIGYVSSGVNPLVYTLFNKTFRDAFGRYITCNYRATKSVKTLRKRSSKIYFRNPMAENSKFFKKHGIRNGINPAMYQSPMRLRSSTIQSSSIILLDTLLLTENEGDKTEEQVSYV
Sequence of 5-hydroxytryptamine receptor 2A (P28223 whole entry): as the sequence (P28223 whole entry) above

As for `COc1ccc(F)cc1C1CC1CNCc1ccsc1OC.Cl` (racemic), the Emax in data set [1] worked out at 65%. Further, the EC50 amounted to 463 nM in data set [2] and 556 nM in data set [4]. Also, the Activity entry in data set [3] was “Not Active”. Further, in data set [5], the Emax at 5 min was found to be 100%.
On the same counts, the results for `COc1ccccc1CN(C)CC1CC1c1cc(F)ccc1OC.Cl` (racemic) are 49%, 2540 nM, 670 nM, “Not Active” and 24%.
On the same counts, the results for `COc1cccc(CNC[C@@H]2C[C@H]2c2cc(F)ccc2OC)c1.Cl` are 85%, 6840 nM, 2600 nM, “Not Active” and 97%.
On the same counts, the results for `COc1ccc(F)cc1[C@H]1C[C@@H]1CNCc1ccccc1F.Cl` are 78%, 1880 nM, 502 nM, “Not Active” and 63%.
For `COc1ccc(F)cc1C1CC1CNCc1ccccc1O.Cl` (racemic), the maximum response (Emax) in data set [1] amounted to 63%. Moreover, the EC50 in data set [2] was found to be 77 nM; in data set [4], 304 nM. Besides, the Activity entry in data set [3] was “Not Active”. The Emax at 5 min in data set [5] is 76%.
For `COc1ccc(F)cc1[C@@H]1C[C@H]1CNCc1ccccc1Cl.Cl`, the Emax in data set [1] came to 72%. Also, the EC50 in data set [2] worked out at 2990 nM; in data set [4], 1860 nM. Also, in data set [3], the Activity result is “Not Active”.
`COc1ccc(F)cc1[C@@H]1C[C@H]1CNCc1ccccc1F.Cl`: in data set [1], the Emax amounted to 90%. In addition, the results for the EC50 in data set [2] and in data set [4] were 1880 nM and 1640 nM, respectively. In addition, in data set [3], the Activity result was “Not Active”. For the same compound, the Emax at 5 min in data set [5] turned out to be 78%.
On to `COc1ccccc1CCNCC1CC1c1cc(F)ccc1OC` (racemic), for which the EC50 in data set [2] came to 307 nM. In addition, in data set [5], the maximum response (Emax) at 5 min was found to be 59%.
In the case of `COc1ccc(F)cc1C1CC1CNC1(c2ccccc2OC)CC1.Cl` (racemic), in data set [1], the maximal response (Emax) came out at 77%. Moreover, the values for the EC50 in data set [2] and in data set [4] were 655 nM and 874 nM, respectively. The Activity result in data set [3] is “Not Active”. In addition, the maximal effect (Emax) at 5 min in data set [5] worked out at 102%.
The matching figures for `COc1ccc(F)cc1[C@H]1C[C@@H]1CNCc1ccccc1Cl.Cl`: 94%, 3530 nM, 529 nM, “Not Active” and 64%.
The matching figures for `COc1ccccc1C(C)NCC1CC1c1cc(F)ccc1OC.Cl` (racemic): 81%, 238 nM, 2550 nM, “Not Active” and 106%.
The matching figures for `COc1ccc(F)cc1[C@@H]1C[C@H]1CNCc1cccs1.Cl`: 81%, 674 nM, 308 nM, “Not Active” and 59%.
For the compound `COc1ccc(F)cc1C1CC1CNCc1sccc1OC.Cl` (racemic), the Emax in data set [1] was found to be 66%. For the same compound, the EC50 in data set [2] is 148 nM; in data set [4], 121 nM. Also, the Activity entry in data set [3] is “Not Active”. For the same compound, the Emax at 5 min in data set [5] stood at 102%.
With `COc1cscc1CNCC1CC1c1cc(F)ccc1OC.Cl` (racemic), the Emax in data set [1] turned out to be 65%. The EC50 amounted to 145 nM in data set [2] and 228 nM in data set [4]. Also, in data set [3], the Activity entry is “Not Active”. For the same compound, in data set [5], the Emax at 5 min is 89%.
Consider `COc1cccc(CNC[C@H]2C[C@@H]2c2cc(F)ccc2OC)c1.Cl`, for which the maximal response (Emax) in data set [1] turned out to be 83%. Moreover, the half-maximal effective concentration (EC50) in data set [2] was 3700 nM; in data set [4] it was 231 nM. In addition, in data set [3], the Activity entry is on record as “Not Active”. Also, in data set [5], the maximum response (Emax) at 5 min stood at 70%.
